Results taken from US6649647B1, “Trioxane derivatives” (priority 1998, dated 2003).

Assays:
Type in all cases: cell-based
[1] = test system: murine melanoma cell line B16F10; experiment: Growth inhibition assay (MTT), B16F10; settings: Table VI, 6 days incubation
Description: (§1) As another example of evaluation of cytotoxicity, cancer cell lines were also used for a growth inhibition assay. The human colon cancer cell lines SW 480 and HT 29 and the murine melanoma cell line B16F10 were used. […] After confluent growth, the cells were trypsinated and resuspended in RPMI plus 10% FCS to a cell concentration of 50000 cells per ml in case of colon cancer cell lines and 20000 in case of B16F10. 100 μl of this cell suspension were transferred in each well of a 96 well microtiter plate and incubated for 1 day at 37° C. in a CO2-incubator. Subsequently, further 100 μl RPMI medium and 1 μl of a DMSO solution, containing the artemisinin derivatives were added. The growth inhibition was estimated after 6 days incubation at 36° C. using the MTT assay.
(§2) 25 μl MTT solution (3-(4,5-dimethylthiazol-2-yl)-2,5-diphenyltetrazolium-bromid) of a starting concentration of 5 mg/ml H2O were added and incubated at 37° C. for 5 h. Subsequently, 100 μl iso-propanol per well were added. After 15 min incubation 100 μl H2O were added. After 30 min shaking, the extinction was measured at 595 nm using a ELISA-Multiplate Reader.

[2] = test system: human colon cancer cell line HT 29; experiment: Growth inhibition assay (MTT), HT 29; settings: Table VI, 6 days incubation
Description: as §1, §2

[3] = test system: human colon cancer cell line SW 480; experiment: Growth inhibition assay (MTT), SW 480; settings: Table VI, 6 days incubation
Description: as §1, §2

[4] = test system: Rat 6 (R6T24) cells transfected and transformed by a c-H-ras oncogene; experiment: Screening for cytotoxicity, cell count by Coulter Counter, R6T24 cells; settings: R6T24 cell line; for LD50 (Day 3) R6T24: day 3 after addition; for LD50 (Day 6) R6T24: day 6 after addition
Description: (§3) Compounds of the invention were screened against Rat 6 subclone of the immortalized F2408 embryo cell line, and Rat 6 (R6T24) cells transfected and transformed by a c-H-ras oncogene. The screening involved placing the R6 and R6T24 cell lines plated at 10^3 cells per well into a 12-well microtiter culture plate for 24 hours. The compounds were added at final concentrations from 0.1-100 μM, and cells were trypsized and counted by Coulter Counter at day 3 and day 6 after the addition. Untreated cells were assigned a survival value of 100%.

[5] = test system: Rat 6 subclone of the immortalized F2408 embryo cell line (R6); experiment: Screening for cytotoxicity, cell count by Coulter Counter, R6 cells; settings: for LD50 (Day 3) R6: day 3 after addition; for LD50 (Day 6) R6: day 6 after addition
Description: as §3

Compound | LD50 B16F18 [1] [nM] | LD50 HT 29 [2] [nM] | LD50 SW 480 [3] [nM] | LD50 (Day 3) R6T24 ([4]; Table V) [µM] | LD50 (Day 6) R6T24 ([4]; Table V) [µM] | LD50 (Day 3) R6T24 ([4]; Table VA) [µM] | LD50 (Day 6) R6T24 ([4]; Table VA) [µM] | LD50 (Day 3) R6 ([5]; Table V) [µM] | LD50 (Day 6) R6 ([5]; Table V) [µM] | LD50 (Day 3) R6 ([5]; Table VA) [µM] | LD50 (Day 6) R6 ([5]; Table VA) [µM]
10α and β-[(2′-naphthylmethyl)oxy]dihydroartemisinin [Example 13β] | 400 | 600 | 300 |  |  |  |  |  |  |  | 
COc1cc(OC)c(C2OC3OC4(C)CCC5C(C)CCC(C2C)C35OO4)c(OC)c1 (mixture of isomers) [Example 27] |  |  |  | 0.67 | 0.26 | 0.67 | 0.26 | 0.57 | 1.10 | 0.57 | 1.10
CO[C@H]1O[C@@H]2O[C@@]3(C)CC[C@H]4[C@H](C)CC[C@@H]([C@H]1C)[C@@]24OO3 [Artemether, artemether, reference compound] |  |  |  | >100.00 | 1.8 | >100 | 0.71 | >100.00 | 1.0 | >100 | 0.6
CC1CCC2[C@@H](C)C(=O)OC3O[C@]4(C)CCC1C32OO4 (some centres unmarked) [Artemisinin, artemisinin, reference compound] |  |  |  | 3.09 | 1.75 | 3.49 | 1.75 | >100.00 | 4.08 | >100.00 | 4.08
C[C@H]1[C@H](OC(=O)CCC(=O)O)O[C@@H]2O[C@@]3(C)CC[C@H]4[C@H](C)CC[C@@H]1[C@@]24OO3 [Artesunate, artesunate, reference compound] |  |  |  | 1.77 | 1.04 | 1.77 | 1.04 | 2.80 | 2.06 | 2.80 | 2.08
CC[C@@]1(O)C(=O)OCc2c1cc1n(c2=O)Cc2cc3ccccc3nc2-1 [CAMPTOTHECIN, reference compound] | 30 | 4 | 9 |  |  |  |  |  |  |  | 
CC1CCC2[C@@H](C)C(=O)N(Cc3ccccc3)C3O[C@]4(C)CCC1C23O4 (some centres unmarked) [D, reference compound] |  |  |  | >50.00 | >50.00 | >50 | >50 | >50.00 | >50.00 | >50 | >50
CC1CCC2C(C)C(F)OC3OC4(C)CCC1C32OO4 (stereo not drawn) [Example 1, 10β-fluoro-10-deoxodihydroartemisinin] |  |  |  | 1.93 | 0.61 | 1.93 | 0.61 | 1.18 | 1.63 | 1.28 | 1.62
CC1CCC2C(C)C(Oc3ccnc4cc(C(F)(F)F)ccc34)OC3OC4(C)CCC1C32OO4 (stereo not drawn) [Example 12, 10β-[4′-(7′-trifluoromethyl-quinolinoxy)]dihydroartemisinin] | 300 | 2000 | 150 |  |  |  |  |  |  |  | 
CC1CC[C@H]2[C@@H](C)C(=O)NC3O[C@]4(C)CCC1C32OO4 (some centres unmarked) [Example 14, 11-azaartemisinin] |  |  |  | 0.18 | 0.09 | 0.18 | 0.09 | >50.00 | 1.22 | >50 | 1.22
CC1CCC2C(CN(Cc3ccccc3)Cc3ccccc3)C(=O)OC3OC4(C)CCC1C32OO4 (centres unmarked) [Example 17, 9-(N,N-dibenzylaminomethyl)artemisinin] |  |  |  | 1.81 | 0.54 |  |  | 1.57 | 2.58 |  | 
CCOC(=O)CCC1C(=O)OC2OC3(C)CCC4C(C)CCC1C24OO3 (centres unmarked) [Example 19, 9-[2-(ethoxycarbonyl)ethyl]artemisinin] |  |  |  | 28.12 | 24.95 |  |  | 52.00 | 59.00 |  | 
C[C@@H]1CC[C@H]2[C@@H](C)C(c3ccc4ccccc4c3)O[C@@H]3O[C@@]4(C)CC[C@@H]1[C@]32OO4 (some centres unmarked) [Example 28] | 300 | 300 | 150 |  |  |  |  |  |  |  | 
C[C@@H]1CC[C@H]2[C@@H](C)C(Nc3ccc(F)cc3)O[C@@H]3O[C@@]4(C)CC[C@@H]1[C@]32OO4 (some centres unmarked) [Example 31] |  |  |  | 0.23 | 0.14 | 0.23 | 0.14 | 0.34 | 0.27 | 0.34 | 0.27
C[C@@H]1CC[C@H]2[C@@H](C)C(N3CCN(C)CC3)O[C@@H]3O[C@@]4(C)CC[C@@H]1[C@]32OO4 (some centres unmarked) [Example 51] |  |  |  |  |  | 0.33 | 0.11 |  |  | 0.33 | 0.12
C[C@@H]1CC[C@H]2[C@@H](C)C(OC(=O)c3c4ccccc4nc4ccccc34)O[C@@H]3O[C@@]4(C)CC[C@@H]1[C@]32OO4 (some centres unmarked) [Example 65] |  |  |  | 3.21 | 1.60 |  |  | 2.73 | 2.52 |  | 
CC1CCC2C(C)C(OC(=O)c3ccc4c(c3)C(=O)c3ccccc3C4=O)OC3OC4(C)CCC1C32OO4 (centres unmarked) [Example 66] |  |  |  | 0.32 | 0.32 | 0.32 | 0.32 | 0.34 | 3.60 | 0.34 | 3.6
CC1CCC2C(C)C(OCc3cccc4c3ccc3ccccc34)OC3OC4(C)CCC1C32OO4 (centres unmarked) [Example 82] |  |  |  |  |  | 0.05 | 0.06 |  |  | 0.12 | 0.12
C[C@@H]1CC[C@H]2[C@@H](C)C(=O)N(Cc3cccc(F)c3)[C@@H]3O[C@@]4(C)CC[C@@H]1[C@@]23OO4 [Example 87] |  |  |  | 6.14 | 1.07 |  |  | >50.00 | 17.5 |  | 
C[C@@H]1CC[C@H]2[C@@H](C)C(=O)N(Cc3ccccc3)[C@@H]3O[C@@]4(C)CC[C@@H]1[C@@]23OO4 [Example 88] |  |  |  | 10.45 | 5.24 | 10.45 | 5.24 | 46.67 | 18.49 | 47.0 | 18.49
